From US10131652B2, “Pyrimidinyloxy benzene derivatives as herbicides” (E. I. DU PONT DE NEMOURS AND COMPANY, priority 2014, dated 2018)
Where two headings read alike, the source gives them in different places.

Experiments:
Format in all cases: in vivo
[1] = tested on: ducksalad (Heteranthera limosa); assay: Test D flooded paddy test plant response; conditions: Flood (flooded paddy test), visual rating on scale 0 to 100 (0 no effect, 100 complete control), 13 to 15 days
Description: (§1) Plant species in the flooded paddy test consisted of rice (Oryza sativa), small-flower umbrella sedge (Cyperus difformis), ducksalad (Heteranthera limosa), and bamyardgrass (Echinochloa crus-galli) grown to the 2-leaf stage for testing. At time of treatment, test pots were flooded to 3 cm above the soil surface, treated by application of test compounds directly to the paddy water, and then maintained at that water depth for the duration of the test. Treated plants and controls were maintained in a greenhouse for 13 to 15 days, after which time all species were compared to controls and visually evaluated. Plant response ratings, summarized in Table D, are based on a scale of 0 to 100 where 0 is no effect and 100 is complete control. A dash (-) response means no test result.

rice (Oryza sativa) = assay: Test D flooded paddy test plant response; conditions: Flood (flooded paddy test), visual rating on scale 0 to 100 (0 no effect, 100 complete control), 13 to 15 days
Description: as §1

[2] = tested on: small-flower umbrella sedge (Cyperus difformis); assay: Test D flooded paddy test plant response; conditions: Flood (flooded paddy test), visual rating on scale 0 to 100 (0 no effect, 100 complete control), 13 to 15 days
Description: as §1

[3] = tested on: barnyardgrass (Echinochloa crus-galli); assay: Test D flooded paddy test plant response; conditions: Flood (flooded paddy test), visual rating on scale 0 to 100 (0 no effect, 100 complete control), 13 to 15 days
Description: as §1

[4] = tested on: field bindweed (Convolvulus arvensis); assay: Test F pre-/postemergence plant response; conditions: Convolvulus arvensis, scale 0 to 100, read-out: Plant response rating, Field Bindweed
How it was run: (§2)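 Values are visual ratings, where 100 is complete control and 0 is no effect, given after 14 to 21 days of greenhouse growth. Test chemicals in a non-phytotoxic, surfactant-containing solvent were sprayed on soil just after planting or on emerged seedlings at the 1- to 4-leaf stage.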

[5] = tested on: morningglory (Ipomoea coccinea); assay: Test F pre-/postemergence plant response; conditions: Ipomoea, pre-emergence, scale 0 to 100, read-out: Plant response rating, Morningglory
How it was run: as §2

[6] = tested on: hairy beggarticks (Bidens pilosa); assay: Test F pre-/postemergence plant response; conditions: Bidens pilosa, scale 0 to 100, read-out: Plant response rating, Beggarticks
How it was run: as §2

[7] = tested on: velvetleaf (Abutilon theophrasti); assay: Test F pre-/postemergence plant response; conditions: Abutilon theophrasti, pre-emergence, scale 0 to 100, read-out: Plant response rating, Velvetleaf
How it was run: as §2

[8] = tested on: giant foxtail (Setaria faberii); assay: Test F pre-/postemergence plant response; conditions: Setaria faberi, pre-emergence, scale 0 to 100, read-out: Plant response rating, Foxtail, Giant
How it was run: as §2

[9] = tested on: johnsongrass (Sorghum halepense); assay: Test F pre-/postemergence plant response; conditions: Sorghum halepense, pre-emergence, scale 0 to 100, read-out: Plant response rating, Johnsongrass
How it was run: as §2

[10] = tested on: waterhemp (common waterhemp, Amaranthus rudis); assay: Test F pre-/postemergence plant response; conditions: Amaranthus tuberculatus, scale 0 to 100, read-out: Plant response rating, Waterhemp
How it was run: as §2

[11] = tested on: ragweed (common ragweed, Ambrosia elatior); assay: Test F pre-/postemergence plant response; conditions: Ambrosia artemisiifolia, scale 0 to 100, read-out: Plant response rating, Ragweed
How it was run: as §2

[12] = tested on: dayflower (Virginia (VA) dayflower, Commelina virginica); assay: Test F pre-/postemergence plant response; conditions: Commelina virginica, scale 0 to 100, read-out: Plant response rating, Dayflower, VA
How it was run: as §2

[13] = tested on: barnyardgrass (Echinochloa crus-galli); assay: Test F pre-/postemergence plant response; conditions: Echinochloa crus-galli, scale 0 to 100, read-out: Plant response rating, Barnyardgrass
How it was run: as §2

[14] = tested on: yellow nutsedge (Cyperus esculentus); assay: Test F pre-/postemergence plant response; conditions: Cyperus, pre-emergence, scale 0 to 100, read-out: Plant response rating, Nutsedge, Yellow
How it was run: as §2

[15] = post-emergence, 16 g ai/ha Postemergence
[16] = post-emergence, 31 g ai/ha Postemergence
[17] = post-emergence, 62 g ai/ha Postemergence
[18] = post-emergence, 125 g ai/ha Postemergence
[19] = pre-emergence, 16 g ai/ha Preemergence
[20] = pre-emergence, 31 g ai/ha Preemergence
[21] = pre-emergence, 62 g ai/ha Preemergence
[22] = pre-emergence, 125 g ai/ha Preemergence

Fc1cccc(Oc2ncc(Br)cn2)c1-c1cc(C(F)F)no1 [Compound 145, 5-bromo-2-[2-[3-(difluoromethyl)-5-isoxazolyl]-3-fluorophenoxy]pyrimidine]
Plant response rating, Ducksalad ([1]; 31 g ai/ha): 80 | Plant response rating, Ducksalad ([1]; 62 g ai/ha): 85 | Plant response rating, Ducksalad ([1]; 125 g ai/ha): 95 | Plant response rating, Ducksalad ([1]; 250 g ai/ha): 95 | Plant response rating, Rice (rice (Oryza sativa); 31 g ai/ha): 0 | Plant response rating, Rice (rice (Oryza sativa); 62 g ai/ha): 15 | Plant response rating, Rice (rice (Oryza sativa); 125 g ai/ha): 15 | Plant response rating, Rice (rice (Oryza sativa); 250 g ai/ha): 35 | Plant response rating, Sedge, Umbrella ([2]; 31 g ai/ha): 60 | Plant response rating, Sedge, Umbrella ([2]; 62 g ai/ha): 75 | Plant response rating, Sedge, Umbrella ([2]; 125 g ai/ha): 90 | Plant response rating, Sedge, Umbrella ([2]; 250 g ai/ha): 90 | Plant response rating, Barnyardgrass ([3]; 31 g ai/ha): 0 | Plant response rating, Barnyardgrass ([3]; 62 g ai/ha): 0 | Plant response rating, Barnyardgrass ([3]; 125 g ai/ha): 0 | Plant response rating, Barnyardgrass ([3]; 250 g ai/ha): 35 | pest or weed control at 16 g/ha [4, 15]: 70% | pest or weed control at 31 g/ha [4, 16]: 75% | pest or weed control at 62 g/ha [4, 17]: 80% | pest or weed control at 125 g/ha [4, 18]: 90% | pest or weed control at 16 g/ha [4, 19]: 0% | pest or weed control at 31 g/ha [4, 20]: 50% | pest or weed control at 62 g/ha [4, 21]: 65% | pest or weed control at 125 g/ha [4, 22]: 95% | pest or weed control at 16 g/ha ([5]; 16 g ai/ha Preemergence): 0% | pest or weed control at 31 g/ha ([5]; 31 g ai/ha Preemergence): 10% | pest or weed control at 125 g/ha ([5]; 125 g ai/ha Preemergence): 35% | pest or weed control at 62 g/ha ([5]; Preemergence): 15% | pest or weed control at 16 g/ha [6, 15]: 55% | pest or weed control at 31 g/ha [6, 16]: 50% | pest or weed control at 62 g/ha [6, 17]: 65% | pest or weed control at 125 g/ha [6, 18]: 70% | pest or weed control at 16 g/ha [6, 19]: 0% | pest or weed control at 31 g/ha [6, 20]: 35% | pest or weed control at 62 g/ha [6, 21]: 30% | pest or weed control at 125 g/ha [6, 22]: 25% | pest or weed control at 16 g/ha ([7]; 16 g ai/ha Preemergence): 35% | pest or weed control at 31 g/ha ([7]; 31 g ai/ha Preemergence): 98% | pest or weed control at 125 g/ha ([7]; 125 g ai/ha Preemergence): 100% | pest or weed control at 62 g/ha ([7]; Preemergence): 100% | pest or weed control at 16 g/ha ([8]; 16 g ai/ha Preemergence): 0% | pest or weed control at 31 g/ha ([8]; 31 g ai/ha Preemergence): 65% | pest or weed control at 62 g/ha ([8]; 62 g ai/ha Preemergence): 85% | pest or weed control at 125 g/ha ([8]; 125 g ai/ha Preemergence): 100% | pest or weed control at 16 g/ha ([9]; 16 g ai/ha Preemergence): 0% | pest or weed control at 31 g/ha ([9]; 31 g ai/ha Preemergence): 20% | pest or weed control at 125 g/ha ([9]; 125 g ai/ha Preemergence): 85% | pest or weed control at 62 g/ha ([9]; Preemergence): 100% | pest or weed control at 16 g/ha [10, 15]: 95% | pest or weed control at 31 g/ha [10, 16]: 98% | pest or weed control at 62 g/ha [10, 17]: 100% | pest or weed control at 125 g/ha [10, 18]: 100% | pest or weed control at 16 g/ha [10, 19]: 100% | pest or weed control at 31 g/ha [10, 20]: 100% | pest or weed control at 125 g/ha [10, 22]: 100% | pest or weed control at 62 g/ha ([10]; pre-emergence, Preemergence): 100% | pest or weed control at 16 g/ha [11, 15]: 30% | pest or weed control at 31 g/ha [11, 16]: 50% | pest or weed control at 62 g/ha [11, 17]: 60% | pest or weed control at 125 g/ha [11, 18]: 70% | pest or weed control at 16 g/ha [11, 19]: 0% | pest or weed control at 31 g/ha [11, 20]: 70% | pest or weed control at 125 g/ha [11, 22]: 80% | pest or weed control at 62 g/ha ([11]; pre-emergence, Preemergence): 65% | pest or weed control at 16 g/ha [12, 15]: 50% | pest or weed control at 31 g/ha [12, 16]: 60% | pest or weed control at 62 g/ha [12, 17]: 75% | pest or weed control at 125 g/ha [12, 18]: 85% | pest or weed control at 16 g/ha [12, 19]: 0% | pest or weed control at 31 g/ha [12, 20]: 0% | pest or weed control at 62 g/ha [12, 21]: 35% | pest or weed control at 125 g/ha [12, 22]: 70% | pest or weed control at 16 g/ha [13, 15]: 10% | pest or weed control at 31 g/ha [13, 16]: 25% | pest or weed control at 62 g/ha [13, 17]: 50% | pest or weed control at 125 g/ha [13, 18]: 70% | pest or weed control at 16 g/ha [13, 19]: 0% | pest or weed control at 31 g/ha [13, 20]: 5% | pest or weed control at 62 g/ha [13, 21]: 30% | pest or weed control at 125 g/ha [13, 22]: 75% | pest or weed control at 16 g/ha ([14]; 16 g ai/ha Preemergence): 0% | pest or weed control at 31 g/ha ([14]; 31 g ai/ha Preemergence): 0% | pest or weed control at 125 g/ha ([14]; 125 g ai/ha Preemergence): 0% | pest or weed control at 62 g/ha ([14]; Preemergence): 0%
